# From PMC3674108 (Journal of the American Chemical Society, 2013)
# “Also recorded” adds a separate entry of the source. Where two headings read alike, the source gives them in different places. Marks after values point to notes of the source that are not given here.
# Columns and labels:
# ecTSase [1] = biological target: T1, ecTSase (Escherichia coli, UniProt P0A884); test: Noncompetitive KIE experiments; assay type: biochemical; conditions: w/ 50 mM MgCl2, 25 °C; for KMCH2H4folate / kcat: 100 μM dUMP, pH 7.5
# T1 sequence (P0A884 whole entry): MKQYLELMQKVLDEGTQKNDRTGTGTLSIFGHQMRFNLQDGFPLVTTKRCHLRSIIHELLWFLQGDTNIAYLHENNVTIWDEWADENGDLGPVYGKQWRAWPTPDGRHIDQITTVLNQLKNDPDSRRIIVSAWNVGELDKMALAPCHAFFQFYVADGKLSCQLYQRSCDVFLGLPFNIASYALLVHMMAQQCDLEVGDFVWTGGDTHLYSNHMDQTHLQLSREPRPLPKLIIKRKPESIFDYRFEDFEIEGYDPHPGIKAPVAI
# [2] = biological target: Escherichia coli TSase (ecTSase) (Escherichia coli, UniProt P0A884); test: Steady-state initial velocities of ecTSase; assay type: biochemical; conditions: for Hill coefficient x (inhibitory binding mode): Eq 3
# Escherichia coli TSase (ecTSase), sequence (P0A884 whole entry): as above
# [3] = biological target: ecTSase-dUMP-Mg^2+ complex; assay type: binding, Escherichia coli; conditions: read-out: KdCH4H4fol; w/ 50 mM MgCl2, 25 °C, calculated using Eq 5
# ecTSase-dUMP complex = assay type: binding, Escherichia coli; conditions: read-out: KdCH4H4fol; w/o Mg^2+, 25 °C, calculated using Eq 5
# apo-ecTSase [4] = biological target: T2, apo-ecTSase (Escherichia coli, UniProt P0A884); conditions: read-out: Kd of Mg^2+ for apo-ecTSase; 25 °C, pH 7.5, one-site binding fit
# T2 sequence (P0A884 whole entry): as above
# ecTSase [5] = biological target: T1, ecTSase
# ecTSase-Mg^2+ complex = ecTSase-Mg^2+ complex (Escherichia coli, UniProt P0A884); test: Fluorescence assay, dUMP titration into ecTSase pre-incubated with MgCl2; assay type: binding
# ecTSase-Mg^2+ complex, sequence (P0A884 whole entry, one chain of several): as the sequence (P0A884 whole entry) above
# apo-ecTSase [6] = biological target: T2, apo-ecTSase; test: biochemical
smiles,measurement,setting,value
[2H][C@]12CNc3nc(N)[nH]c(=O)c3N1CN(c1ccc(C(=O)N[C@@H](CCC(=O)O)C(=O)O)cc1)C2 [6R-D-CH2H4fol],KMCH2H4folate,ecTSase [1],19 ± 5 µM
same,kcat,ecTSase [1],2.3 ± 0.2 s⁻¹
"Nc1nc2c(c(=O)[nH]1)N1CN(c3ccc(C(=O)N[C@@H](CCC(=O)O)C(=O)O)cc3)CC1CN2 (stereo partly drawn) [CH2H4fol, N^5,N^10-methylene-5,6,7,8-tetrahydrofolate]",Hill coefficient x (inhibitory binding mode),"[2]; absence of Mg^2+, best-fit integer",2
same,Hill coefficient n (productive binding mode),"[2]; both absence and presence of Mg^2+, best-fit integer, Eq 2",1
same,Hill coefficient x (inhibitory binding mode),"[2]; presence of Mg^2+ (50 mM MgCl2), best-fit integer",1
same,KMCH4H4fol,"[2]; w/ 50 mM MgCl2, 25 °C, 100 μM dUMP",15 ± 1 µM
same,KMCH4H4fol,"[2]; w/o Mg^2+, 25 °C",17 ± 2 µM
same,KMCH2H4folate,ecTSase [1],15 ± 1 µM
same,kcat,ecTSase [1],8.7 ± 0.2 s⁻¹
same,Kd,[3],8 ± 1 µM
same,Kd,ecTSase-dUMP complex,17 ± 2 µM
[Ca+2].[Cl-].[Cl-] [CaCl2],effect on initial velocities (ionic strength control),"[2]; 50 mM CaCl2, 25 °C",no difference; also recorded: no effects on the initial velocities
[Mg+2] [Mg^2+],Kd,apo-ecTSase [4],27 ± 7 mM
same,increase of kcat (hydride transfer rate) by Mg^2+,"[2]; 50 mM MgCl2, 5-35 °C",ca. 7 fold
same,increase of the Michaelis constant of dUMP by Mg^2+,"[2]; 50 mM MgCl2, 25 °C",ca. 5 fold
same,reduction of activation free energy ΔG^‡ of kcat by Mg^2+,"[2]; 50 mM MgCl2, 25 °C",ca. 1 kcal/mol
same,reduction of entropy of activation TΔS^‡ of kcat by Mg^2+,"[2]; 50 mM MgCl2, 25 °C",ca. 1 kcal/mol
same,-TΔS^‡ at 25 °C from fitting kcat to the Eyring equation,[2]; w/ 50 mM MgCl2,12.8 ± 0.2 kcal/mol
same,ΔH^‡ from fitting kcat to the Eyring equation,"[2]; w/ 50 mM MgCl2, 5-35 °C",3.4 ± 0.2 kcal/mol
same,ΔG^‡ from fitting kcat to the Eyring equation,"[2]; w/ 50 mM MgCl2, 25 °C",16.2 ± 0.4 kcal/mol
same,AH/AT (isotope effect on the Arrhenius prefactors of the hydride transfer),ecTSase [5]; w/ 50 mM MgCl2,6.6 ± 1.3
same,intrinsic H/D KIE (^Dk) on the hydride transfer,"ecTSase [5]; w/ 50 mM MgCl2, 25 °C, competitive KIE experiment",3.9 ± 0.2^a
same,observed H/D KIE on kcat (^Dkcat),ecTSase [1],3.8 ± 0.3
"O=c1ccn([C@H]2C[C@H](O)[C@@H](COP(=O)(O)O)O2)c(=O)[nH]1 [dUMP, 2’-deoxyuridine-5’-monophosphate]",Kd,ecTSase-Mg^2+ complex,14 ± 2 µM
same,KMdUMP,"[2]; w/ 50 mM MgCl2, 25 °C, 150 μM CH2H4fol",2.4 ± 0.2 µM
same,KMdUMP,"[2]; w/o Mg^2+, 25 °C",0.5 ± 0.1 µM
same,Kd,apo-ecTSase [6],8.5 ± 0.9 µM
